Species on record: Rattus norvegicus
Assay: DrugMatrix - Regimen: Daily Repeat
Format: toxicity, organism-based, Sprague-Dawley
Parameters: regimen Daily Repeat, gender Male, age 6-8 weeks
Conditions: in vivo, po, route oral GAVAGE, […]; for ABSOLUTE BASOPHIL / ABSOLUTE EOSINOPHIL / ABSOLUTE LYMPHOCYTE / ABSOLUTE MONOCYTE / ABSOLUTE SEGMENTED NEUTROPHIL / BASOPHIL / EOSINOPHIL / ERYTHROCYTE COUNT / HEMATOCRIT / HEMOGLOBIN / LEUKOCYTE COUNT / LYMPHOCYTE / MEAN CORPUSCULAR HEMOGLOBIN / MEAN CORPUSCULAR HEMOGLOBIN CONCENTRATION / MEAN CORPUSCULAR VOLUME / MONOCYTE / NEUTROPHIL / NUCLEATED RED BLOOD CELLS / PLATELET COUNT: tissue Blood; for ALANINE AMINOTRANSFERASE / ALBUMIN / ALKALINE PHOSPHATASE / ASPARTATE AMINOTRANSFERASE / BLOOD UREA NITROGEN / CARBON DIOXIDE / CHLORIDE / CHOLESTEROL / CREATININE / GLUCOSE / LACTATE DEHYDROGENASE / LIPASE / PHOSPHORUS / POTASSIUM / SODIUM / TOTAL BILIRUBIN / TOTAL PROTEIN / URIC ACID: tissue Plasma
[1] = 0 mg/kg, 72 h, dose level Control, time 3 day
[2] = 0 mg/kg, 120 h, dose level Control, time 5 day
[3] = 250 mg/kg, 72 h, dose level Low, time 3 day

## CC(C)Cc1ccc(CC(=O)O)cc1 [IBUFENAC]
[1]
  ABSOLUTE BASOPHIL: 0 CELLS/uL
  ABSOLUTE EOSINOPHIL: 255.83 CELLS/uL
  ABSOLUTE LYMPHOCYTE: 11617.83 CELLS/uL
  ABSOLUTE MONOCYTE: 307.5 CELLS/uL
  ABSOLUTE SEGMENTED NEUTROPHIL: 1902.17 CELLS/uL
  BASOPHIL: 0%
  EOSINOPHIL: 1.83%
  ERYTHROCYTE COUNT: 5.58 x10E6/uL
  HEMATOCRIT: 33.62%
  HEMOGLOBIN: 12.42 G/DL
  LEUKOCYTE COUNT: 14.08 x10E3/uL
  LYMPHOCYTE: 82.67%
  MEAN CORPUSCULAR HEMOGLOBIN: 22.32 pg
  MEAN CORPUSCULAR HEMOGLOBIN CONCENTRATION: 36.98 G/DL
  MEAN CORPUSCULAR VOLUME: 60.4 fL
  MONOCYTE: 2.17%
  NEUTROPHIL: 13.33%
  NUCLEATED RED BLOOD CELLS: 0 /100WBC
  PLATELET COUNT: 1154.67 x10E3/uL
  ALANINE AMINOTRANSFERASE: 64.67 u/L
  ALBUMIN: 4.18 G/DL
  ALKALINE PHOSPHATASE: 382.67 u/L
  ASPARTATE AMINOTRANSFERASE: 123.17 u/L
  BLOOD UREA NITROGEN: 17.67 mg/dL
  CARBON DIOXIDE: 24.33 mmol/L
  CHLORIDE: 101.67 MEQ/L
  CHOLESTEROL: 76.5 mg/dL
  CREATININE: 0.2 mg/dL
  GLUCOSE: 175.33 mg/dL
  LACTATE DEHYDROGENASE: 331 u/L
  LIPASE: 10.17 u/L
  PHOSPHORUS: 12.77 mg/dL
  POTASSIUM: 6.65 MEQ/L
  SODIUM: 145.8 MEQ/L
  TOTAL BILIRUBIN: 0.2 mg/dL
  TOTAL PROTEIN: 6.07 G/DL
  URIC ACID: 1.78 mg/dL
[2]
  ABSOLUTE BASOPHIL: 0 CELLS/uL
  ABSOLUTE EOSINOPHIL: 155.33 CELLS/uL
  ABSOLUTE LYMPHOCYTE: 12695.83 CELLS/uL
  ABSOLUTE MONOCYTE: 475.67 CELLS/uL
  ABSOLUTE SEGMENTED NEUTROPHIL: 1989.83 CELLS/uL
  BASOPHIL: 0%
  EOSINOPHIL: 1%
  ERYTHROCYTE COUNT: 5.75 x10E6/uL
  HEMATOCRIT: 34.98%
  HEMOGLOBIN: 12.73 G/DL
  LEUKOCYTE COUNT: 15.32 x10E3/uL
  LYMPHOCYTE: 83%
  MEAN CORPUSCULAR HEMOGLOBIN: 22.17 pg
  MEAN CORPUSCULAR HEMOGLOBIN CONCENTRATION: 36.4 G/DL
  MEAN CORPUSCULAR VOLUME: 60.92 fL
  MONOCYTE: 3%
  NEUTROPHIL: 13%
  NUCLEATED RED BLOOD CELLS: 0 /100WBC
  PLATELET COUNT: 1081.33 x10E3/uL
  ALANINE AMINOTRANSFERASE: 55 u/L
  ALBUMIN: 4.12 G/DL
  ALKALINE PHOSPHATASE: 354.67 u/L
  ASPARTATE AMINOTRANSFERASE: 91 u/L
  BLOOD UREA NITROGEN: 15 mg/dL
  CARBON DIOXIDE: 27.17 mmol/L
  CHLORIDE: 100.5 MEQ/L
  CHOLESTEROL: 71.5 mg/dL
  CREATININE: 0.18 mg/dL
  GLUCOSE: 169.17 mg/dL
  LACTATE DEHYDROGENASE: 324 u/L
  LIPASE: 10.5 u/L
  PHOSPHORUS: 12.07 mg/dL
  POTASSIUM: 6.58 MEQ/L
  SODIUM: 141.92 MEQ/L
  TOTAL BILIRUBIN: 0.12 mg/dL
  TOTAL PROTEIN: 5.88 G/DL
  URIC ACID: 1.6 mg/dL
[3]
  ABSOLUTE BASOPHIL: 0 CELLS/uL
  ABSOLUTE EOSINOPHIL: 268.67 CELLS/uL
  ABSOLUTE LYMPHOCYTE: 13501.33 CELLS/uL
  ABSOLUTE MONOCYTE: 489 CELLS/uL
  ABSOLUTE SEGMENTED NEUTROPHIL: 2041 CELLS/uL
  BASOPHIL: 0%
  EOSINOPHIL: 1.67%
  ERYTHROCYTE COUNT: 5.57 x10E6/uL
  HEMATOCRIT: 33.83%
  HEMOGLOBIN: 12.4 G/DL
  LEUKOCYTE COUNT: 16.3 x10E3/uL
  LYMPHOCYTE: 83%
  MEAN CORPUSCULAR HEMOGLOBIN: 22.23 pg
  MEAN CORPUSCULAR HEMOGLOBIN CONCENTRATION: 36.67 G/DL
  MEAN CORPUSCULAR VOLUME: 60.7 fL
  MONOCYTE: 3%
  NEUTROPHIL: 12.33%
  NUCLEATED RED BLOOD CELLS: 0 /100WBC
  PLATELET COUNT: 1296 x10E3/uL
  ALANINE AMINOTRANSFERASE: 64.67 u/L
  ALBUMIN: 4.3 G/DL
  ALKALINE PHOSPHATASE: 362.33 u/L
  ASPARTATE AMINOTRANSFERASE: 94.67 u/L
  BLOOD UREA NITROGEN: 15.67 mg/dL
  CARBON DIOXIDE: 26.67 mmol/L
  CHLORIDE: 103 MEQ/L
  CHOLESTEROL: 79.33 mg/dL
  CREATININE: 0.15 mg/dL
  GLUCOSE: 164.67 mg/dL
  LACTATE DEHYDROGENASE: 128.67 u/L
  LIPASE: 9.67 u/L
  PHOSPHORUS: 11.4 mg/dL
  POTASSIUM: 6.53 MEQ/L
  SODIUM: 146.97 MEQ/L
  TOTAL BILIRUBIN: 0.17 mg/dL
  TOTAL PROTEIN: 6.03 G/DL
  URIC ACID: 1.43 mg/dL

Source: ChEMBL document CHEMBL3885881, “DrugMatrix”
